Where “and” joins values, the source holds several entries; their conditions need not be identical. Equal entries are not always repeated.
Tested on: 323965-272-R-J2-PDC complex spheroid viability
Assay: Anticancer human tumor 323965-272-R-J2-PDC patient-derived pancreatic carcinoma cell line growth inhibition [CLK]
Details: for viability, T/C: stronger effect = lower value
Description: A high-throughput screen of multi-cell type tumor spheroids was designed to identify active combinations of […] and targeted small molecules. Complex spheroids include a stromal component modeled by human endothelial cells (HUVEC) and fibroblasts modeled by human mesenchymal stem cells (MSCs). The concentration ranges selected for each drug and investigational agent were based upon clinically achievable concentrations if the clinical Cmax of the agent was known.
Compounds. The drugs and investigational agents: cirtuvivint (SM08502; NSC835563), CC-671 (NSC850746), vemurafenib (NSC761431), tapotoclax (NSC804041), sotorasib (NSC818433), adagrasib (NSC831453), MRTX-1133 (NSC836407), BAY2416964 (NSC825713), copanlisib (NSC816437), inavolisib (NSC800729), abemaciclib (NSC768073), osimertinib (NSC779217), entinostat (NSC756642), eltanexor (KPT-8602, NSC794443), venetoclax (NSC766270), ceralasertib (NSC777638), bortezomib (NSC756655), olaparib (NSC753686), talazoparib (NSC767125), alisertib (NSC759677), peposertib (NSC802822), gemcitabine (NSC613327), 5-fluorouracil (NSC19893), SN-38 (NSC673596), oxaliplatin (NSC266046), paclitaxel (NSC125973), and doxorubicin (NSC123127), were obtained from the National Cancer Institute (NCI) Developmental Therapeutics Program Chemical Repository. The FDA-approved anticancer drug set is available from the Developmental Therapeutics Program at https://dtp.cancer.gov/organization/dscb/obtaining/available plates.htm. […] The stock solutions were prepared in dimethyl sulfoxide (DMSO, Sigma-Aldrich, St. Louis, MO, cat. D2650), except for the platinum complexes which were prepared in saline (Quality Biological, Gaithersburg, MD, cat. 114-055-101), at 800-fold the tested concentration and stored at -70 degrees C prior to their use. All drugs and investigational agents were tested over a range starting from a high concentration at or near the clinical Cmax and decreasing in half-log increments. If the clinical Cmax for an agent had not been determined, the highest concentration tested was 10 microM.
Cell Culture. All cells were maintained in an incubator at 37 degrees C and 5% CO2 with 95% humidity. The PDC lines were cultured according to standard operating procedures established by the NCI PDMR. Briefly, all PDCs were thawed and cultured in Matrigel-coated flasks prepared with a working solution of 1X Ham's F-12 nutrient mix, without supplementation (Invitrogen, Waltham, MA, cat. 11765054), 100 U/mL penicillin-streptomycin (Invitrogen, cat. 15140122), and 2.5% Matrigel (Corning Inc., Corning, NY, cat. 354248) for the first three passages. The 947758-054-R-J2-PDC line was cultured in 6B/Colon 1A media, which includes advanced DMEM/F-12 (Thermo Fisher Scientific, cat. 12634028), 10 mM HEPES (Thermo Fisher Scientific, cat. 15630080), 1X GlutaMAX supplement (Thermo Fisher Scientific, cat. 35050061), 0.1 mg/mL primocin (InvivoGen, cat. ant-pm-2), 10% defined fetal bovine serum, heat inactivated (HyClone Laboratories Inc., cat. SH30070.03HI), 1.25 mM N-Acetyl-L-cysteine (Sigma-Aldrich, cat. A9165), 10 mM nicotinamide (Sigma-Aldrich, cat. N0636), 1X B-27 supplement (Thermo Fisher Scientific, cat. 17504044), 1X N-2 supplement (Thermo Fisher Scientific, cat. 17502048), and 10 microM Y-27632 dihydrochloride (Tocris Bioscience, cat. 1254). The 876862-298-R-J1-PDC was cultured in 6E media, which includes all 6B/Colon 1A media components plus 50% L-WRN conditioned media (ATCC, cat. CRL-3276), 50 ng/mL recombinant human EGF recombinant protein (hEGF; Thermo Fisher Scientific, cat. PHG0311), 10 ng/mL recombinant human fibroblast growth factor 10 (hGFG-10; PeproTech, cat. 100-26), 1 ng/mL recombinant human fibroblast growth factor 2 (hFGF-2; PeproTech, cat. 100-18B), and 1 µM prostaglandin E2 (PGE2; Tocris, cat. 2296). The 227483-062-R1-J1-PDC line was cultured in Panc media, containing all 6E components except hFGF-2, with the addition of 500 nM SB-431542 (Selleckchem, cat. S1067) and 10 nM gastrin (Tocris, cat. 3006). […]
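Note: spheroids exposed to agents for seven days before readout.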
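Throughout, for viability, T/C: percent of DMSO vehicle control wells so 100% = untreated growth.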

Row | Compound | IC50 (curve of compound) | viability, T/C (compound 0.0316 µM) | viability, T/C (compound 0.1 µM) | viability, T/C (compound 0.316 µM) | viability, T/C (compound 1 µM) | viability, T/C (compound 3.16 µM) | viability, T/C (compound 10 µM) | further results
1 | C=C(F)C(=O)N1CCN(c2nc(OCC3CCCN3C)nc3c2CCN(c2cccc4cccc(Cl)c24)C3)CC1CC#N (stereo not drawn) | 3.99 µM and > 10 µM | 64.5% and 64.8% | 50.8% and 64.2% | 48.9% and 63% | 69.4% and 61.5% | 66.8% and 77.9% | – | –
2 | CC(=O)O[C@H]1C(=O)[C@@]2(C)[C@H]([C@H](OC(=O)c3ccccc3)[C@]3(O)C[C@H](OC(=O)[C@H](O)[C@@H](NC(=O)c4ccccc4)c4ccccc4)C(C)=C1C3(C)C)[C@]1(OC(C)=O)CO[C@@H]1C[C@@H]2O | < 0.0316 µM | 35.3% and 32% | 36.8% and 34.2% | 33.2% and 32.9% | 34.6% and 33.4% | 39.6% and 35.1% | 35.9% and 36.3% | –
3 | CC(C)CC(NC(=O)C(Cc1ccccc1)NC(=O)c1cnccn1)B(O)O (stereo not drawn) | 0.00454 µM and 0.00298 µM | – | – | – | – | – | – | viability, T/C (compound 0.000949 µM): 107% and 115%; viability, T/C (compound 0.003 µM): 75.1% and 49.5%; viability, T/C (compound 0.00949 µM): 5.4% and 2.55%; viability, T/C (compound 0.03 µM): 0.66% and 1.05%; viability, T/C (compound 0.0949 µM): 0.26% and 0.62%; viability, T/C (compound 0.3 µM): 2% and 3.78%
4 | CC1(C)CCC(CN2CCN(c3ccc(C(=O)NS(=O)(=O)c4ccc(NCC5CCOCC5)c([N+](=O)[O-])c4)c(Oc4cnc5[nH]ccc5c4)c3)CC2)=C(c2ccc(Cl)cc2)C1 | 5.61 µM and 5.54 µM | 97.7% and 104% | 103% and 96.6% | 103% and 100% | 95.6% and 102% | 93.1% and 89.5% | 6.41% and 8.48% | –
5 | CN1CCN(c2cc(C(=O)Nc3cc4cc(-c5cnn(C)c5)ccc4cn3)ccn2)CC1 | – | 98.9% [middle of 12 runs] | 70% [middle of 12 runs] | 28.1% [middle of 12 runs] | 4.53% [middle of 12 runs] | 4.75% [middle of 12 runs] | 4.22% [middle of 11 runs] | IC50 (compound alone, run of 08/14/2023): 174 nM [middle of 10 runs]
6 | COC1C=CCC(C)C(C)S(=O)(=O)NC(=O)c2ccc3c(c2)N(CC2CCC21)CC1(CCCc2cc(Cl)ccc21)CO3 (stereo not drawn) | 1.64 µM and 3.65 µM | 111% and 91.1% | 108% and 91.9% | 77.9% and 80.8% | 61.1% and 61.5% | 37.5% and 61% | 10.5% and 25.6% | –
7 | NC(=O)C(=Cn1cnc(-c2cc(C(F)(F)F)cc(C(F)(F)F)c2)n1)c1cncnc1 | 1.69 µM and 1.06 µM | – | – | – | – | – | – | viability, T/C (compound 0.00949 µM): 97.4% and 105%; viability, T/C (compound 0.03 µM): 109% and 91.9%; viability, T/C (compound 0.0949 µM): 74.2% and 75.9%; viability, T/C (compound 0.3 µM): 64.3% and 66.8%; viability, T/C (compound 0.949 µM): 69.2% and 61.7%; viability, T/C (compound 3 µM): 38.3% and 28.5%
8 | Nc1ccccc1NC(=O)c1ccc(CNC(=O)OCc2cccnc2)cc1 | 9.39 µM and 6.89 µM | 115% and 110% | 103% and 104% | 101% and 95.5% | 89.1% and 86.3% | 72.6% and 61.8% | 47.9% and 43.9% | –
9 | Nc1ccn(C2OC(CO)C(O)C2(F)F)c(=O)n1 (stereo not drawn) | < 0.0316 µM | 30.7% and 33.9% | 35.3% and 38.5% | 30% and 29.5% | 37.3% and 32.3% | 32.7% and 31.5% | 28.6% and 33.3% | –
10 | O=c1[nH]cc(F)c(=O)[nH]1 | > 10 µM | 116% and 95.3% | 105% and 91.3% | 111% and 103% | 96.9% and 96.8% | 67.9% and 76.6% | 51.1% and 52.5% | –

Second part, led by results:

Row | IC50 (curve of compound) | Compound | viability, T/C (compound 0.0316 µM) | viability, T/C (compound 0.1 µM) | viability, T/C (compound 0.316 µM) | viability, T/C (compound 1 µM) | viability, T/C (compound 3.16 µM) | viability, T/C (compound 10 µM) | further results
11 | 9.34 µM and > 10 µM | C#Cc1c(F)ccc2cc(O)cc(-c3ncc4c(N5CC6CCC(C5)N6)nc(OCC56CCCN5CC(F)C6)nc4c3F)c12 (stereo not drawn) | 101% and 111% | 91.2% and 95.5% | 106% and 98.5% | 81.5% and 86.9% | 63.2% and 75.6% | 48.4% and 55.3% | –
12 | > 10 µM | C=CC(=O)N1CCN(c2nc(=O)n(-c3c(C)ccnc3C(C)C)c3nc(-c4c(O)cccc4F)c(F)cc23)C(C)C1 (stereo not drawn) | 75.1% and 73.7% | 60.8% and 66.9% | 55.2% and 68.3% | 67.1% and 84.3% | 76% and 71.3% | 62.9% and 66.1% | –
13 | > 0.3 µM | C=CC(=O)Nc1cc(Nc2nccc(-c3cn(C)c4ccccc34)n2)c(OC)cc1N(C)CCN(C)C | – | – | – | – | – | – | viability, T/C (compound 0.000949 µM): 103% and 92.1%; viability, T/C (compound 0.003 µM): 80.7% and 91.7%; viability, T/C (compound 0.00949 µM): 97.6% and 86%; viability, T/C (compound 0.03 µM): 90.5% and 83.2%; viability, T/C (compound 0.0949 µM): 81.3% and 78.3%; viability, T/C (compound 0.3 µM): 87.5% and 75.6%
14 | > 10 µM | CC(CO)NC(=O)c1cc(-c2ccc(Cl)cc2)nn(-c2cnn(C)c2)c1=O (stereo not drawn) | 93.7% and 115% | 92.6% and 98.9% | 94.8% and 101% | 91.8% and 110% | 106% and 116% | 91.5% and 105% | –
15 | > 10 µM | CC(Nc1ccc2c(c1)OCCn1cc(N3C(=O)OCC3C(F)F)nc1-2)C(N)=O (stereo not drawn) | 94.2% and 96.6% | 89.2% and 83.2% | 76.2% and 66.7% | 67.8% and 65.5% | 63.1% and 68.3% | 50.9% and 47.6% | –
16 | 2.07 µM and 1.96 µM | CC1COCCN1c1cc(C2(S(C)(=N)=O)CC2)nc(-c2ccnc3[nH]ccc23)n1 (stereo not drawn) | 103% and 106% | 99.9% and 91.9% | 90.5% and 90.1% | 70.1% and 62.4% | 37.1% and 40.2% | 31.6% and 31% | –
17 | > 10 µM | CCCS(=O)(=O)Nc1ccc(F)c(C(=O)c2c[nH]c3ncc(-c4ccc(Cl)cc4)cc23)c1F | 105% and 112% | 105% and 113% | 112% and 123% | 110% and 105% | 116% and 99% | 84.8% and 79.7% | –
18 | > 1 µM | CCN1CCN(Cc2ccc(Nc3ncc(F)c(-c4cc(F)c5nc(C)n(C(C)C)c5c4)n3)nc2)CC1 | 81.2% and 68.3% | 67.5% and 69.9% | 73.3% and 68.3% | 72.3% and 68.7% | – | – | viability, T/C (compound 0.00316 µM): 91.3% and 105%; viability, T/C (compound 0.01 µM): 95.6% and 95%
19 | 0.0102 µM and 0.00851 µM | CCc1c2c(nc3ccc(O)cc13)-c1cc3c(c(=O)n1C2)COC(=O)[C@]3(O)CC | 34.2% and 29.5% | 35.9% and 30.6% | 26.4% and 30.6% | 26.2% and 20.2% | – | – | viability, T/C (compound 0.00316 µM): 90.2% and 92.5%; viability, T/C (compound 0.01 µM): 49.5% and 42.7%
20 | 0.0836 µM and 0.0481 µM | COc1c(OCCCN2CCOCC2)ccc2c3n(c(=NC(=O)c4cnc(N)nc4)nc12)CCN3 | 62% and 54.2% | 46.6% and 45.2% | 38.4% and 31% | 27.7% and 21.9% | – | – | viability, T/C (compound 0.00316 µM): 98.5% and 103%; viability, T/C (compound 0.01 µM): 80.8% and 72.1%
21 | > 0.1 µM | Cn1ncnc1[C@H]1c2n[nH]c(=O)c3cc(F)cc(c23)N[C@@H]1c1ccc(F)cc1 | 114% and 94.7% | 83.6% and 74.6% | – | – | – | – | viability, T/C (compound 0.000316 µM): 108% and 106%; viability, T/C (compound 0.001 µM): 108% and 97.8%; viability, T/C (compound 0.00316 µM): 101% and 105%; viability, T/C (compound 0.01 µM): 104% and 99.3%
22 | > 10 µM | O=C(c1cc(Cc2n[nH]c(=O)c3ccccc23)ccc1F)N1CCN(C(=O)C2CC2)CC1 | 105% and 107% | 103% and 102% | 100% and 98.1% | 103% and 90.2% | 108% and 107% | 84.3% and 81.5% | –
